Measurements from US20100129430A1, “LIPOSOME DRUG CARRIERS WITH PH-SENSITIVITY” (priority 2008, published 2010).

Key:
pKa of lipid headgroups = format: physicochemical; conditions: lowest value that arranges all release-rate data points in a straight line
Experimental: The Zeta potential of liposomes containing different fractions of the titratable domain-forming lipid DSPA was measured in phosphate buffer at different pH values (7.4, 5.5, and 4.0) using a Zetasizer ZS90 (Malvern instruments, Worcestershire, UK). Measurements were performed in 10 mM PBS with no salt. For these measurements, liposomes (1 mM total lipid) were prepared without grafted PEG-chains on their surface to allow for closer approach of the plane of shear to the physical surface of lipid membranes.
For all lipid fractions, the rate of content release attributed to discontinuities at the interfacial boundaries is linearly proportional to the square root of protonated DSPA lipids and therefore proportional to the total perimeter of the discontinuities' interface (open symbols).
This deviation of the pKa value can be attributed to several factors. First, the proposed model of small, circular domains is certainly an oversimplification. Second, because the apparent pKa of PA should depend on the surface charge density, the values of apparent pKa should be composition-dependent.

[1] = reported value; cited from earlier work

pKa used to calculate the fraction of protonated DSPA lipids (pKa of lipid headgroups): 4.5
Substance: phosphatidic acid
pKa [1]: 4.0
